# Results taken from patent publication US10059741B2 (priority 2015, dated 2018).
# Values joined by “and” are separate entries in the source; they are usually repeats but may differ in a detail not shown here. Equal values may be shown once. Bridge positions count the residues as written; N and C are the ends. Square brackets hold non-standard residues; d marks the D form. Peptide text beside a SMILES is read from it. S5 = C=CCCC[C@](C)(N)C(=O)O; Nle = CCCC[C@H](N)C(=O)O; Aib = CC(C)(N)C(=O)O
# What was measured:
# H3N2 Perth/16/2009 = test: microbe, parasite or virus in culture; assay type: cell-based, influenza A virus
# [1] = tested on: Influenza A H1N1 Influenza A/California/7/2009; test: microbe, parasite or virus in culture; assay type: cell-based, influenza A virus
# [2] = tested on: Influenza A H1N1 Influenza A/Texas/4/2009; test: microbe, parasite or virus in culture; assay type: cell-based, influenza A virus
# [3] = tested on: H1N1 A/Solomon Island/03/2006; assay type: cell-based, influenza A virus; conditions: read-out: EC50
# H5N1 A/Duck/MN/1525/81 = test: microbe, parasite or virus in culture; assay type: cell-based, influenza A virus; conditions: read-out: EC50
# [4] = tested on: H5N1 A/Hong Kong/213/2003; test: microbe, parasite or virus in culture; assay type: cell-based, influenza A virus; conditions: read-out: EC50
# [5] = tested on: Influenza A H3N2 Influenza A/Brisbane/10/2007; test: microbe, parasite or virus in culture; assay type: cell-based, influenza A virus
# H1N1 California/07/2009 = test: microbe, parasite or virus in culture; assay type: cell-based, influenza A virus
# [6] = tested on: Influenza B Florida/04/2006; test: Cytopathic effect (CPE) inhibition in MDCK cells, neutral red; assay type: cell-based; conditions: read-out: EC50
# H7N9 A/Anhui/1/2013 = test: microbe, parasite or virus in culture; assay type: cell-based, influenza A virus; conditions: read-out: EC50
# [7] = tested on: influenza virus, various viral strains; assay type: cell-based
# [8] = tested on: Influenza B/Brisbane/60/2008; test: microbe, parasite or virus in culture; assay type: cell-based
# in vitro = conditions: dog, CC50
# [9] = Plasma PK in a cyno monkey, single subcutaneous dose
# [10] = tested on: Influenza B Brisbane/60/2008; test: Cytopathic effect (CPE) inhibition in MDCK cells, neutral red; assay type: cell-based; conditions: read-out: EC50
# [11] = cynomolgus monkey, sc, 2.25 mg/kg
smiles,measurement,setting,value
"CCCC[C@H](NC(C)=O)C(=O)N[C@@H](CC(=O)O)C(=O)N[C@H](C(=O)N[C@@H](CC(N)=O)C(=O)N[C@@]1(C)CCCC=CCCC[C@@](C)(C(=O)N[C@@H](CC(C)C)C(=O)N[C@@H](CCCCN)C(=O)N[C@H](C(=O)NC(C)(C)C(=O)N[C@@H](C)C(=O)N[C@@H](CCC(N)=O)C(N)=O)C(C)C)NC(=O)[C@H](CC(C)C)NC(=O)[C@H](CC(C)C)NC(=O)[C@H]([C@@H](C)O)NC1=O)C(C)C [AP1, Ac-NleDVN$TLL$LKVAibAQ-NH2] (Ac-[Nle]DVN[S5]TLL[S5]LKV[Aib]AQ-NH2; staple 5-9)",EC90,H3N2 Perth/16/2009,28 µM
same,EC50,H3N2 Perth/16/2009; read-out: EC50,12 µM
same,EC50,[1]; read-out: EC50,> 100 µM
same,EC90,[1]; read-out: EC90,> 100 µM
same,EC50,[2]; read-out: EC50,> 100 µM
same,EC90,[2]; read-out: EC90,> 100 µM
same,EC50,[3],3 µM and 1.8 µM
same,EC50,H5N1 A/Duck/MN/1525/81,6.3 µM and 6.4 µM
same,EC50,[4],> 100 µM
same,EC50,[5]; read-out: EC50,> 100 µM
same,EC90,[5]; read-out: EC90,> 100 µM
same,EC50,H1N1 California/07/2009; read-out: EC50,28 µM
same,EC90,H1N1 California/07/2009; read-out: EC90,> 65 µM
same,EC50,[6],11 µM
same,EC50,H7N9 A/Anhui/1/2013,> 100 µM
same,EC90,[7],> 100 µM
same,EC50,[8],> 100 µM
same,EC90,[8],> 100 µM
same,CC50,in vitro,> 100 µM
same,time at which drug levels were measureable (last time point assessed),"[9]; cyno monkey, single subcutaneous dose 2.25 mg/kg",96 h
same,MRT,[9]; [11],21 h
same,half-life,[9]; [11],13 h
same,EC50,[10],6.9 µM
